From patent publication US20240140957A1, “BRIDGED COMPOUNDS AS KRAS G12D INHIBITOR AND DEGRADER AND THE USE THEREOF” (BeiGene Switzerland GmbH, priority 2021, published 2024)

Target: GDP-loaded KRAS G12D (Homo sapiens, UniProt P01116, G12D)
Assay: KRAS G12D Probe Displacement Assay
Assay type: binding
Conditions: KRAS G12D 0.5 nM, biotinylated probe 2 4 nM; Table 6 letters; read-out: KRAS G12D Probe Displacement Assay IC50 (class)

Chain of GDP-loaded KRAS G12D (P01116 1-188 isoform P01116-2 G12D): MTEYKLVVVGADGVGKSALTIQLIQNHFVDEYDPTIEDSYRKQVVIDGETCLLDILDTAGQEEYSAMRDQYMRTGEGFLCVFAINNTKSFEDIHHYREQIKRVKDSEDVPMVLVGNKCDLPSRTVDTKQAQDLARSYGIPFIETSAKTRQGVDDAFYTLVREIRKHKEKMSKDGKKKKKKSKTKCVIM

Row | IC50 [nM] | Compound
1 | < 50 | CC1(COc2nc(N3CC4CCC(C3)N4)c3cc(C(F)(F)F)c(-c4ccc(F)c5sc(N)nc45)c(F)c3n2)CCCOC1 (stereo not shown) [Example E183, 4-(4-(3,8-diazabicyclo[3.2.1]octan-3-yl)-8-fluoro-2-((3-methyltetra hydro-2H-pyran-3-yl)methoxy)-6-(trifluoromethyl)quinazolin-7-yl)-7-fluorobenzo[d]thiazol-2-amine]
2 | < 50 | CC(F)(F)c1c(Cl)cc(N)nc1-c1c(Cl)cc2c(N3CC4CCC(C3)N4)nc(OC[C@@]34CCCN3C[C@H](F)C4)nc2c1F [Example E130, 6-(4-(3,8-diazabicyclo[3.2.1]octan-3-yl)-6-chloro-8-fluoro-2-(((2R,7aS)-2-fluorotetrahydro-1H-pyrrolizin-7a(5H)-yl)methoxy)quinazolin-7-yl)-4-chloro-5-(1,1-difluoroethyl)pyridin-2-amine]
3 | < 50 | CC1(COc2nc(N3CC4CCC(C3)N4)c3cc(C(F)(F)F)c(-c4ccc(F)c5sc(N)nc45)c(F)c3n2)CCOC1 (stereo not shown) [Example E181, 4-(4-(3,8-diazabicyclo[3.2.1]octan-3-yl)-8-fluoro-2-((3-methyltetrahydrofuran-3-yl)methoxy)-6-(trifluoromethyl)quinazolin-7-yl)-7-fluorobenzo[d]thiazol-2-amine]
4 | < 50 | Nc1nc2c(-c3c(C(F)(F)F)cc4c(N5CC6CCC(C5)N6)nc(OCCn5cccn5)nc4c3F)ccc(F)c2s1 [Example E185, 4-(2-(2-(1H-pyrazol-1-yl)ethoxy)-4-(3,8-diazabicyclo[3.2.1]octan-3-yl)-8-fluoro-6-(trifluoromethyl)quinazolin-7-yl)-7-fluorobenzo[d]thiazol-2-amine]
5 | < 50 | Nc1nc2c(-c3c(C(F)(F)F)cc4c(N5CC6CCC(C5)N6)nc(OCC56CC(O)(C5)C6)nc4c3F)ccc(F)c2s1 [Example E222, 3-(((7-(2-amino-7-fluorobenzo[d]thiazol-4-yl)-4-(3,8-diazabicyclo [3.2.1]octan-3-yl)-8-fluoro-6-(trifluoromethyl)quinazolin-2-yl)oxy)methyl)bicyclo[1.1.1]pentan-1-ol]
6 | < 50 | Nc1nc2c(-c3c(C(F)(F)F)cc4c(N5CC6CCC(C5)N6)nc(OCC5CCCCC5O)nc4c3F)ccc(F)c2s1 (stereo not shown) [Example E213, 2-(((7-(2-amino-7-fluorobenzo[d]thiazol-4-yl)-4-(3,8-diazabicyclo[3.2.1]octan-3-yl)-8-fluoro-6-(trifluoromethyl)quinazolin-2-yl)oxy)methyl)cyclohexan-1-ol]
7 | < 50 | Nc1nc2c(-c3c(C(F)(F)F)cc4c(N5CC6CCC(C5)N6)nc(OCC5CC(O)C5)nc4c3F)ccc(F)c2s1 (stereo not shown) [Example E173]
8 | < 50 | Nc1nc2c(-c3c(C(F)(F)F)cc4c(N5CC6CCC(C5)N6)nc(OC5CCOC5)nc4c3F)ccc(F)c2s1 (stereo not shown) [Example E143]
9 | < 50 | Cc1nc(N)nc(-c2c(Cl)cc3c(N4CC5CCC(C4)N5)nc(OC[C@@]45CCCN4C[C@H](F)C5)nc3c2F)c1C(F)(F)F [Example E112, 4-(4-(3,8-diazabicyclo[3.2.1]octan-3-yl)-6-chloro-8-fluoro-2-(((2R,7aS)-2-fluorotetrahydro-1H-pyrrolizin-7a(5H)-yl)methoxy)quinazolin-7-yl)-6-methyl-5-(trifluoromethyl)pyrimidin-2-amine]
10 | < 50 | COC1(COc2nc(N3CC4CCC(C3)N4)c3cc(C(F)(F)F)c(-c4ccc(F)c5sc(N)nc45)c(F)c3n2)COC1 [Example E176, 4-(4-(3,8-diazabicyclo[3.2.1]octan-3-yl)-8-fluoro-2-((3-methoxyoxetan-3-yl)methoxy)-6-(trifluoromethyl)quinazolin-7-yl)-7-fluorobenzo[d] thiazol-2-amine]
11 | < 50 | CN(C)C(=O)CCNC1C[C@H]2CC[C@@H]1N2c1nc(OC[C@@]23CCCN2C[C@H](F)C3)nc2c(F)c(-c3ccc(F)c4sc(N)nc34)c(C(F)(F)F)cc12 (stereo partly drawn) [Example E99, 3-(((1S,4R)-7-(7-(2-amino-7-fluorobenzo[d]thiazol-4-yl)-8-fluoro-2-(((2R,7aS)-2-fluorotetrahydro-1H-pyrrolizin-7a(5H)-yl)methoxy)-6-(trifluoromethyl)quinazolin-4-yl)-7-azabicyclo [2.2.1]heptan-2-yl)amino)-N,N-dimethyl propanamide]
12 | < 50 | Cc1cc(O)cc(-c2c(Cl)cc3c(N4CC5CCC(C4)N5)nc(OC[C@@]45CCCN4C[C@H](F)C5)nc3c2F)c1C(F)(F)F [Example E114, 3-(4-(3,8-diazabicyclo[3.2.1]octan-3-yl)-6-chloro-8-fluoro-2-(((2R,7aS)-2-fluorotetrahydro-1H-pyrrolizin-7a(5H)-yl)methoxy)quinazolin-7-yl)-5-methyl-4-(trifluoromethyl)phenol]
13 | < 50 | Nc1nc2c(-c3c(Cl)cc4c(N5CC6CCC(C5)N6)nc(OC[C@@]56CCCN5C[C@H](F)C6)nc4c3F)cc(Cl)cc2s1 [Example E140, 4-(4-(3,8-diazabicyclo[3.2.1]octan-3-yl)-6-chloro-8-fluoro-2-(((2R,7aS)-2-fluorotetrahydro-1H-pyrrolizin-7a(5H)-yl)methoxy)quinazolin-7-yl)-6-chlorobenzo [d]thiazol-2-amine]
14 | < 50 | N#CC1(COc2nc(N3CC4CCC(C3)N4)c3cc(C(F)(F)F)c(-c4ccc(F)c5sc(N)nc45)c(F)c3n2)CCC1 [Example E214, 1-(((7-(2-amino-7-fluorobenzo[d]thiazol-4-yl)-4-(3,8-diazabicyclo [3.2.1]octan-3-yl)-8-fluoro-6-(trifluoromethyl)quinazolin-2-yl)oxy)methyl)cyclobutane-1-carbonitrile]
15 | < 50 | N#Cc1c(N)sc2c(F)ccc(-c3c(Cl)cc4c(N5CC6CCC(C5)N6)nc(OC[C@@]56CCCN5C[C@H](F)C6)nc4c3F)c12 [Example E106, 4-(4-(3,8-diazabicyclo[3.2.1]octan-3-yl)-6-chloro-8-fluoro-2-(((2R,7aS)-2-fluorotetrahydro-1H-pyrrolizin-7a(5H)-yl)methoxy)quinazolin-7-yl)-2-amino-7-fluorobenzo[b]thiophene-3-carbonitrile]
16 | 50 to 100 | Nc1nc2c(-c3c(C(F)(F)F)cc4c(N5CC6CCC(C5)N6)nc(OCC5CCCC5O)nc4c3F)ccc(F)c2s1 (stereo not shown) [Example E220]
17 | < 50 | Cc1cc(N)nc(-c2c(Cl)cc3c(N4CC5CCC(C4)N5)nc(OCC4(C)CNC(=O)C4)nc3c2F)c1C(F)(F)F (stereo not shown) [Example E208, 4-(((7-(6-amino-4-methyl-3-(trifluoromethyl)pyridin-2-yl)-4-(3,8-diazabicyclo[3.2.1]octan-3-yl)-6-chloro-8-fluoroquinazolin-2-yl)oxy)methyl)-4-methylpyrrolidin-2-one]
18 | < 50 | COCC(CO)(COc1nc(N2CC3CCC(C2)N3)c2cc(C(F)(F)F)c(-c3ccc(F)c4sc(N)nc34)c(F)c2n1)OC (stereo not shown) [Example E169, 3-((7-(2-amino-7-fluorobenzo[d]thiazol-4-yl)-4-(3,8-diazabicyclo [3.2.1]octan-3-yl)-8-fluoro-6-(trifluoromethyl)quinazolin-2-yl)oxy)-2-methoxy-2-(methoxymethyl)propan-1-ol]
19 | < 50 | C[C@@H](CN1CCC(F)CC1)Oc1nc(N2CC3CCC(C2)N3)c2cc(Cl)c(-c3ccc(F)c4sc(N)c(C#N)c34)c(F)c2n1 [Example E116, 4-(4-(3,8-diazabicyclo[3.2.1]octan-3-yl)-6-chloro-8-fluoro-2-(((S)-1-(4-fluoropiperidin-1-yl)propan-2-yl)oxy)quinazolin-7-yl)-2-amino-7-fluorobenzo[b]thiophene-3-carbonitrile]
20 | < 50 | N#CC1(F)CC(Oc2nc(N3CC4CCC(C3)N4)c3cc(C(F)(F)F)c(-c4ccc(F)c5sc(N)nc45)c(F)c3n2)C1 (stereo not shown) [Example E151, 3-((7-(2-amino-7-fluorobenzo[d]thiazol-4-yl)-4-(3,8-diazabicyclo[3.2.1]octan-3-yl)-8-fluoro-6-(trifluoromethyl)quinazolin-2-yl)oxy)-1-fluorocyclo butane-1-carbonitrile]
21 | < 50 | CC1(COc2nc(N3CC4CCC(C3)N4)c3cc(C(F)(F)F)c(-c4ccc(F)c5sc(N)nc45)c(F)c3n2)CCC(=O)N1 (stereo not shown) [Example E212, 5-(((7-(2-amino-7-fluorobenzo[d]thiazol-4-yl)-4-(3,8-diazabicyclo[3.2.1]octan-3-yl)-8-fluoro-6-(trifluoromethyl)quinazolin-2-yl)oxy)methyl)-5-methylpyrrolidin-2-one]
22 | 100 to 1000 | COC1CN2CC(F)CC2(COc2nc(N3C4CNCC3COC4)c3cc(F)c(-c4nc(N)cc(C)c4C(F)(F)F)c(F)c3n2)C1 (stereo not shown) [Example E138, 6-(4-(3-oxa-7,9-diazabicyclo[3.3.1]nonan-9-yl)-6,8-difluoro-2-((2-fluoro-6-methoxytetrahydro-1H-pyrrolizin-7a(5H)-yl)methoxy)quinazolin-7-yl)-4-methyl-5-(trifluoromethyl)pyridin-2-amine]
23 | < 50 | COCCCNC1C[C@H]2CC[C@@H]1N2c1nc(OC[C@@]23CCCN2C[C@H](F)C3)nc2c(F)c(-c3ccc(F)c4sc(N)nc34)c(C(F)(F)F)cc12 (stereo partly drawn) [Example E97, 7-fluoro-4-(8-fluoro-2-(((2R,7aS)-2-fluorotetrahydro-1H-pyrrolizin-7a(5H)-yl)methoxy)-4-((1S,4R)-2-((3-methoxypropyl)amino)-7-azabicyclo [2.2.1]heptan-7-yl)-6-(trifluoromethyl)quinazolin-7-yl) benzo[d]thiazol-2-amine]
24 | < 50 | COC1(COc2nc(N3CC4CCC(C3)N4)c3cc(C(F)(F)F)c(-c4ccc(F)c5sc(N)nc45)c(F)c3n2)CC1 [Example E156]
25 | < 50 | Nc1nc2c(-c3c(C(F)(F)F)cc4c(N5CC6CCC(C5)N6)nc(OCC5(CO)CCC5)nc4c3F)ccc(F)c2s1 [Example E154, (1-(((7-(2-amino-7-fluorobenzo[d]thiazol-4-yl)-4-(3,8-diazabicyclo[3.2.1]octan-3-yl)-8-fluoro-6-(trifluoromethyl)quinazolin-2-yl)oxy)methyl)cyclobutyl) methanol]
